For 52 compounds, EC50 results are on record in ChEMBL document CHEMBL1142990, “Self-organizing maps for identification of new inhibitors of P-glycoprotein” (J Med Chem, 2007).

Structures are written as SMILES.

In this assay the target is ATP-dependent translocase ABCB1 (Homo sapiens, UniProt P08183). Description: Inhibition of P-glycoprotein expressed in MDR CCRF vcr1000 cells by daunorubicin efflux assay.
Sequence of ATP-dependent translocase ABCB1 (P08183 whole entry): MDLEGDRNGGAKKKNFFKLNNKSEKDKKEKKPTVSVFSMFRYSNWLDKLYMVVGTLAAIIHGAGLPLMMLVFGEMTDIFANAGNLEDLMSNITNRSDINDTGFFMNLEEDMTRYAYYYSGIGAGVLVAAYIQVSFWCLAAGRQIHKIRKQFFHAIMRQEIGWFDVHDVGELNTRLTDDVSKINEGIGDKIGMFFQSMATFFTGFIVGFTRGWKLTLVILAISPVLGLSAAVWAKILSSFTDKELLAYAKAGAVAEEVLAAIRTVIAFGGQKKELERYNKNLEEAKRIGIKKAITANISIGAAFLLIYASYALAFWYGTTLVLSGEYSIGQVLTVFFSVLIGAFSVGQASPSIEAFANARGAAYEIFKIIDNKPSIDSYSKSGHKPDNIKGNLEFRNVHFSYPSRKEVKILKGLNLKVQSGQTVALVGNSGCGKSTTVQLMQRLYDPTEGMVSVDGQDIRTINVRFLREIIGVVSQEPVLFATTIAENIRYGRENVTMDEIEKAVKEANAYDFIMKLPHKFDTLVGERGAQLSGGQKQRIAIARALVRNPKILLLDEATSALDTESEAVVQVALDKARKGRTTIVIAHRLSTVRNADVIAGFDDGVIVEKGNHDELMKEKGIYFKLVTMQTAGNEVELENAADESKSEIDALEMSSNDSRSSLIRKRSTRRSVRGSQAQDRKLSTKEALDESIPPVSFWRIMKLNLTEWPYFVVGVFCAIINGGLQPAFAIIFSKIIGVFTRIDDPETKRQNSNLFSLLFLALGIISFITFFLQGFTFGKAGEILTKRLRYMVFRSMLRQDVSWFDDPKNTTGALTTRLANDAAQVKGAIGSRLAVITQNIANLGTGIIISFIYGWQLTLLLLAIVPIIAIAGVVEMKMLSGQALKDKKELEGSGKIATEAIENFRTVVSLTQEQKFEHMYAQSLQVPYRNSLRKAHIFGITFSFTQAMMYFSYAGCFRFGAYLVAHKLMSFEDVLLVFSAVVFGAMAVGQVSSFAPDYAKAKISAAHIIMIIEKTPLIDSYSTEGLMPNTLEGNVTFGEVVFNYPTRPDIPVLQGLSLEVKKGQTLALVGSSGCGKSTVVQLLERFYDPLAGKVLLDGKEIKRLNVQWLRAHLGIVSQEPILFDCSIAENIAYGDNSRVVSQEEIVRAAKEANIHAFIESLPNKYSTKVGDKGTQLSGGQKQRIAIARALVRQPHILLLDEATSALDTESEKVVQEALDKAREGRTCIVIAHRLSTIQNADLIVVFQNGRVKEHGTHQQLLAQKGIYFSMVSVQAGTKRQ

As a reminder, the EC50 is the concentration that produces a half-maximal response. Read a high EC50 as lower potency in that assay. In turn, `Cc1ccc(N2CCN(CC(O)COc3cccc4c3C(=O)C(Cc3ccccc3)C4)CC2)c(C)c1` (configuration not stated) came in with an EC50 of 0.167 µM. As for `CC(=O)c1c(C)cc(C)c(CSc2nc3ccc(NC(=O)c4cccc5ccccc45)cc3s2)c1C`, the EC50 was determined as 0.11 µM. The same measure for `CCOCCOC(=O)c1ccc(N)cc1`: 312 µM; for `O=C(CCc1ccccc1)c1ccccc1OCC(O)CN(C(c1ccccc1)c1ccccc1)C(c1ccccc1)c1ccccc1` (configuration not stated): 10.4 µM. The result for `O=C(c1ccccc1)c1ccccc1OCC(O)CN1CCN(c2ccc(F)cc2)CC1` (configuration not stated) reads 0.147 µM; that for `O=C(CCc1ccccc1)c1ccccc1OCC(O)CNC1CCCCC1` (configuration not stated), 0.341 µM. In turn, `CN(C)CC(O)COc1ccccc1C(=O)CCc1ccccc1` (configuration not stated) returned an EC50 of 2.48 µM. The same measure for `COc1ccccc1N1CCN(CC(O)c2oc3ccccc3c2CCc2ccccc2)CC1` (configuration not stated): 0.177 µM. Turning to `CCN(CC)CC(O)COc1ccccc1C(=O)c1ccccc1` (configuration not stated), the response was half-maximal at 2.32 µM (EC50).

In the case of `CCCCOc1ccc(C(=O)Nc2ccc3nc(SCc4c(C)cc(C)c(C(C)=O)c4C)sc3c2)cc1`, a half-maximal effect (EC50) was put at 0.097 µM. The result for `CC(C)OC(CCc1ccccc1)c1ccccc1OCC(O)CN1CCCCC1` (configuration not stated) reads 0.46 µM; that for `CC(C)(C)c1ccc(N2C(=O)c3ccccc3NC2c2ccc3c(c2)OCO3)cc1` (configuration not stated), 0.73 µM. The same measure for `COc1ccc(C2Nc3ccccc3C(=O)N2c2ccc(NC(C)=O)cc2)cc1` (configuration not stated): 20.9 µM; for `O=C(O)COc1ccccc1C(=O)CCc1ccccc1`: 1590 µM. For `CCOC(=O)C(=NNc1c(Cl)cc(Cl)cc1Cl)C(=O)OCC`, the EC50 is 17.7 µM. For `O=C(CCc1ccccc1)c1ccccc1OCC(O)CNCCC(c1ccccc1)c1ccccc1` (configuration not stated), the response was half-maximal at 0.717 µM (EC50).

In turn, `COc1ccccc1N1CCN(CC(O)COc2ccccc2C(=O)CCc2ccccc2)CC1` (configuration not stated) had an EC50 of 0.23 µM.

Compound `Cc1ccc(-c2n[nH]c3c2C(c2ccc(N(C)C)cc2)C(C#N)=C(N)O3)cc1` (configuration not stated) yielded an EC50 of 3.08 µM. The result for `CC(=O)c1cccc(OCC(O)CN2CCN(c3ccc(F)cc3)CC2)c1` (configuration not stated) reads 10.1 µM. The same measure for `CCc1ccc(N2C(=O)c3ccccc3NC2c2ccc(OCC(C)C)cc2)cc1` (configuration not stated): 1.21 µM; for `Cc1ccccc1N1CCN(CC(O)COc2ccccc2C(=O)CCc2ccc(N(C)C)cc2)CC1` (configuration not stated): 0.013 µM. The same measure for `CCCNC[C@@H](O)c1oc2ccccc2c1CCc1ccccc1`: 1.1 µM; for `Cc1ccc(OCC(O)CN2CCN(c3ccccc3C)CC2)c(C(=O)CCc2ccccc2)c1` (configuration not stated): 0.026 µM; for `O=C(CCc1ccccc1)c1ccccc1OCCCCCN1CCCCC1`: 0.242 µM. In turn, `COC(CCc1ccccc1)c1ccccc1OCC(O)CNCCC(c1ccccc1)c1ccccc1` (configuration not stated) had an EC50 of 0.752 µM. The same measure for `CC(=O)c1cc(C)ccc1OCC(O)CN1CCCCC1` (configuration not stated): 5.47 µM; for `CCOC(=O)COc1ccccc1C(=O)CCc1ccccc1`: 23.2 µM.

For `COc1ccc(OCC(O)CN2CCN(c3ccccc3C)CC2)c(C(C)=O)c1` (configuration not stated), a half-maximal effect (EC50) was put at 0.859 µM. The same measure for `O=C(c1ccccc1)c1ccccc1OCC(O)CN1CCC(O)(c2ccccc2)CC1` (configuration not stated): 0.307 µM. In turn, `COc1ccc(CC(O)CO)cc1OC` (configuration not stated) displayed an EC50 of over 500 µM. The result for `O=C(CCc1ccccc1)c1ccccc1OCCCCCCCN1CCCCC1` reads 0.179 µM; that for `O=C(CCc1ccccc1)c1ccccc1OCC(O)CN1CCN(c2ccccc2)CC1` (configuration not stated), 0.61 µM.

The compound `O=C(CCc1ccccc1)c1cc(OCc2ccccc2)ccc1OCC(O)CN1CCCCC1` (configuration not stated) yielded an EC50 of 0.172 µM. `COC(CCc1ccccc1)c1ccccc1OCC(O)CN(C(C)C)C(C)C` (configuration not stated) registered an EC50 of 0.658 µM. For the compound `CC(C)N(CC(O)COc1ccccc1C(=O)CCc1ccccc1)C(C)C` (configuration not stated), a half-maximal effect (EC50) was put at 0.377 µM. The same measure for `O=C1c2c(cccc2OCC(O)CN2CCCCC2)CC1Cc1ccccc1` (configuration not stated): 0.212 µM; for `CCC(C)c1ccc(N2C(=O)c3ccccc3NC2c2ccc(C(C)C)cc2)cc1` (configuration not stated): 0.29 µM. Regarding `O=C(CCc1ccccc1)c1ccccc1OCC(O)CN1CCN(Cc2ccccc2)CC1` (configuration not stated), the midpoint of the response, the EC50, lay at 0.659 µM.

`O=C(CCc1ccccc1)c1ccccc1OCCCCN1CCCCC1` showed an EC50 of 0.533 µM.

As for `Cc1ccc(CCC(=O)c2ccccc2OCC(O)CN2CCN(c3ccccc3C)CC2)cc1` (configuration not stated), the EC50 was found to be 0.018 µM. In the case of `CCCN(C)CC(O)COc1ccccc1C(=O)CCc1ccccc1` (configuration not stated), the EC50 amounted to 0.416 µM. As to `CC(C)C(NCC(O)COc1ccccc1C(=O)CCc1ccccc1)c1ccccc1` (configuration not stated), a half-maximal effect (EC50) was put at 0.21 µM. The same measure for `O=C(CCc1ccccc1)c1ccc(OCC(O)CNCCC(c2ccccc2)c2ccccc2)cc1` (configuration not stated): 0.505 µM. The same measure for `O=C(CCc1ccccc1)c1ccccc1OCC(O)CNCC(c1ccccc1)c1ccccc1` (configuration not stated): 0.797 µM; for `COc1cccc(/C=N/NC(=O)C(=O)NC(C)(C)C)c1O`: 102 µM; for `CC(=O)c1c(C)cc(C)c(CSc2nc3ccc(NC(=O)CCc4ccccc4)cc3s2)c1C`: 0.3 µM.

With `CC(C)N(CC(O)COc1ccccc1C(=O)CCc1cccc2ccccc12)C(C)C` (configuration not stated), the EC50 is 0.465 µM. The result for `c1ccc(CCC2c3ccccc3OC2CN2CCCCC2)cc1` (configuration not stated) reads 1.62 µM.

Turning to `CCC(=O)N(Cc1ccccc1)CC(O)COc1ccccc1C(=O)CCc1ccccc1` (configuration not stated), the midpoint of the response, the EC50, lay at 1.65 µM.

In turn, `CN(C)c1ccc(-c2nc(C(F)(F)F)nc(C(F)(F)F)n2)cc1` showed an EC50 of over 100 µM. The result for `CCOc1ccc(N2C(=O)c3ccccc3NC2c2ccc(N(C)C)cc2)cc1` (configuration not stated) reads 25.1 µM; that for `O=C(CCc1ccccc1)c1ccccc1OCCCCN1CCOCC1`, 1.01 µM.
